Results published in patent US20220168325A1, “METHODS TO PROMOTE CEREBRAL BLOOD FLOW IN THE BRAIN” (THE UNIVERSITY OF VERMONT, priority 2019, published 2022).

Legend:
[1] = test system: K+-evoked capillary hyperemia; test: In vivo two-photon imaging of K+-evoked capillary RBC flux through cranial window; set-up: species or system C57BL/6J mouse
[2] = test system: capillary-to-arteriole electrical signaling; test: Ex vivo capillary-parenchymal arteriole (CaPA) preparation: upstream arteriolar dilation to 10 mM K+ on capillaries; set-up: species or system C57BL/6J mouse
Text: Ex Vivo Capillary-Parenchymal Arteriole Preparation. The capillary-parenchymal arteriole (CaPA) preparation was obtained by dissecting parenchymal arterioles arising from the M1 region of the middle cerebral artery, leaving the attached capillary bed intact, as reported recently (Longden et al, “Capillary K^+-Sensing Initiates Retrograde Hyperpolarization to Increase Local Cerebral Blood Flow,” Nat. Neurosci. 20:717-726 (2017), which is hereby incorporated by reference in its entirety). Precapillary arteriolar segments were cannulated on glass micropipettes on a Living Systems Instrumentation pressure myograph, with one end occluded by a tie. The ends of the capillaries were then sealed by the downward pressure of an overlying glass micropipette. Application of pressure (40 mmHg) to the cannulated parenchymal arteriole segment in this preparation pressurized the entire tree and induced myogenic tone in the parenchymal arteriole segment. With this preparation, 10 mM K^+ was applied onto capillaries by pressure ejection from a glass micropipette (tip diameter, ˜5 μm) attached to a Picospritzer III (Parker) at ˜5 psi for 18 s. Luminal diameter in parenchymal arterioles was acquired in one region of the arteriolar segment at 15 Hz using IonWizard 6.2 edge-detection software (IonOptix). Changes in arteriolar diameter were calculated from the average luminal diameter measured over the last 10 s of stimulation and were normalized to the maximum dilatory responses in 0 mM Ca^2+ bath solution at the end of each experiment.
Capillary Kir2.1 channels sense increases in [K^+]o caused by increased neuronal activity and initiate a hyperpolarizing signal. By virtue of strong electrical coupling between endothelial cells, retrograde hyperpolarization ascends to upstream feeding arterioles to enhance cerebral blood flow to the site of signal initiation (Longden et al, “Capillary K^+-Sensing Initiates Retrograde Hyperpolarization to Increase Local Cerebral Blood Flow,” Nat. Neurosci. 20:717-726 (2017), which is hereby incorporated by reference in its entirety). […] During this lag period, Kir2.1 currents recorded in the perforated-patch configuration declined steadily (τdecay≈12 minutes), but K^+-mediated retrograde dilatory signaling remained intact until Kir2.1 currents reached ˜50% of their maximal amplitude (FIG. 7C).

[3] = target: T1, Kir2.1 channel (Mus musculus, UniProt P35561); test: Patch-clamp recording of Kir2.1 currents in freshly isolated brain capillary endothelial cells (cECs); conditions: perforated patch
T1 sequence (P35561 1-428): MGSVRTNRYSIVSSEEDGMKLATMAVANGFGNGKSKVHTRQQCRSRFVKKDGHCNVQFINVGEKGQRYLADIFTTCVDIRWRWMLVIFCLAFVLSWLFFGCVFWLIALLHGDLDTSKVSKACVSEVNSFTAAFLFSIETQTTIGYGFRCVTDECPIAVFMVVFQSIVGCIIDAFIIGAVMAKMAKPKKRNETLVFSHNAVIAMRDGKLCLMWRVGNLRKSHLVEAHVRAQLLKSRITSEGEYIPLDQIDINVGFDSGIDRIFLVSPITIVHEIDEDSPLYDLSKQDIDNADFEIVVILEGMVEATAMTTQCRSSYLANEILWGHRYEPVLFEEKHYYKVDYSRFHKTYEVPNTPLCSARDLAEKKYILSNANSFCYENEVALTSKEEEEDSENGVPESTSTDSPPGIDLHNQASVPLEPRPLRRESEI

[4] = test system: capillary-to-arteriole electrical signaling; test: Ex vivo CaPA preparation from transgenic mice: arteriolar tone and dilation to capillary 10 mM K+
[5] = test system: functional hyperemia; test: Whisker stimulation-induced functional hyperemia in vivo (laser Doppler flowmetry, somatosensory cortex); set-up: species or system TgNotch3^WT and TgNotch3^R169C mice; conditions: exogenous PIP2 (diC16-PIP2 systemically via femoral artery catheter), CADASIL model mice
[6] = test system: intracerebral arterioles; test: Luminal diameter of isolated pressurized parenchymal arterioles; set-up: species or system TgNotch3^WT and TgNotch3^R169C mice; conditions: bath soluble PIP2 10 μM; TgNotch3^WT and TgNotch3^R169C arterioles
Description: FIGS. 21A and 21B show typical recordings of luminal diameter of pressurized parenchymal arterioles from TgNotch3^WT (control) and TgNotch3^R169C (CADASIL) mice. NS309 and U46619 are used to test the ability of the arteriole to dilate and constrict, respectively. Bath application of soluble PIP2 at 10 μM has little effect on arteriole diameter.

[7] = target: T1, Kir2.1 channel; test: Patch-clamp Ba2+-sensitive Kir2.1 current in cECs from transgenic mice; assay type: cell-based, TgNotch3^WT and TgNotch3^R169C mice; set-up: freshly isolated capillary endothelial cells from TgNotch3^WT and TgNotch3^R169C brains; endogenous in cells; host or cells: freshly isolated brain capillary endothelial cells from TgNotch3^WT and TgNotch3^R169C mice (FVB/N background); conditions: CADASIL cECs
[8] = bath-applied PGE2 1 μM or carbachol 10 μM

Row | Molecule | K+-induced increase in capillary RBC flux ([1]; carbachol 0.6 μg/kg intravascular, t=20 minutes after injection, 10 mM K+, saline controls 52±12%) [%] | Baseline capillary RBC flux (before K+ application) ([1]; carbachol 0.6 μg/kg, over 30 minutes) | Lag phase (X0) before inhibition of capillary-mediated arteriolar dilation [2, 8] | Time constant of postplateau exponential decay of K+-induced dilation (τdecay) [2, 8] | K+-induced upstream arteriolar vasodilation ([2]; bath-applied PGE2 1 μM or carbachol 10 μM, 10 mM K+ on capillaries) | Parenchymal arteriolar diameter ([2]; carbachol, FIGS. 8A-8D) | Kir2.1 current decline at X0 (12 minutes) ([3]; carbachol 10 μM) [%] | Time constant of exponential decay of Kir2.1 current (τdecay) ([3]; PGE2 2 μM or carbachol 10 μM applied at t0) [min] | Upstream arteriole response to 10 mM K+ on capillaries ([4]; CaPA from endothelial specific Kir2.1^-/- (Kir channel deficient) mice, HB-EGF or soluble PIP2 present) | Arteriolar dilation in response to capillary stimulation with 10 mM K+ ([4]; TgNotch3^R169C CaPA, 1 mM 4-AP, 30 ng/mL HB-EGF bath, or exogenous PIP2 bath) | Functional hyperemia in vivo [5] | Arteriole diameter [6] | Kir2-mediated current ([7]; exogenous soluble PIP2 10 μM (diC16-PIP2, 20 minutes pre-incubation)) | Kir current ([7]; intracellular soluble PIP2 via patch pipette (10 μM diC8-PIP2))
1 | C[N+](C)(C)CCOC(N)=O [carbachol] | 10±6 | did not change | ≈ 12 minutes | ≈ 13 minutes | similarly suppressed | minimally altered parenchymal arteriolar diameter | ~58 | 8 | – | – | – | – | – | –
2 | phosphatidylinositol 4,5-bisphosphate [soluble PIP2] | – | – | – | – | – | – | – | – | absence of effect | restored | restored | little effect | increased Kir2-mediated current in cECs from CADASIL mice to values observed in control groups | counteracted the reduction in Kir current
